# Experimental data reported in US11571411B2, “Use of a bisamide derivative of malonic acid for treating allergic and other diseases in humans and animals” (PHARMENTERPRISES ALLERGY LLC, priority 2018, dated 2023).
# Experiments:
# [1] = target: T1, human histamine receptor type 3 (Homo sapiens, UniProt Q9Y5N1); experiment: Effect on activity of histamine receptor type 3 (intracellular cAMP, CHO cells); assay type: cell-based; conditions: preincubation with histamine, read-out: IC50, antagonist of histamine receptor type 3
# T1 construct: expressed in transfected cells; host or cells: CHO cells
# [2] = target: T1, human histamine receptor type 3; experiment: Binding of radiolabeled ligand [3H]Nα-methylhistamine to histamine receptor type 3; conditions: CHO cells, [3H]Nα-methylhistamine (1 nM)
# [3] = target: T2, human histamine receptor type 4 (Homo sapiens, UniProt Q9H3N8); experiment: Binding of radiolabeled ligand [3H] histamine to histamine receptor type 4; conditions: HEK-293 cells, [3H] histamine (10 nM)
# T2 construct: expressed in transfected cells; host or cells: HEK-293 cells
# [4] = tested on: ovalbumin-induced allergic rhinitis model; experiment: Ovalbumin-induced allergic rhinitis model in guinea pigs, oral administration; assay type: in vivo, guinea pig; conditions: intragastrically; for Number of nose scratchings / Number of sneezes: within 2 hours after ovalbumin
# Method: Int Immunopharmacol. 2013. V.17(1). P.18-25]. Guinea pigs (250-300 g) were immunized with 4× (on days 0, 7, 14 and 21) intraperitoneal administration of a mixture of ovalbumin (100 μg/pig) and aluminum hydroxide (5 mg/pig), diluted and suspended in saline. On day 28 of the study, an ovalbumin solution (60 mg/ml) was injected intranasally to the animals, 20 μl into each nostril. On day 35, after shaving the skin on the back, the animals were intradermally injected with an ovalbumin solution (200 μg/ml, 25 μl). […] On day 42 of the study, an ovalbumin solution (60 mg/ml, 20 μl/nostril) was administered intranasally. A group of sham-immunized animals was formed in order to control the formation of allergic inflammation: the pigs received an aluminum hydroxide solution (5 mg/pig) on days 0, 7, 14 and 21, a saline solution on days 28 and 35, and an ovalbumin solution (60 mg/ml, 20 μl/nostril) on day 42. Table 1 presents data on clinical manifestations of pathology and the number of eosinophils in the lavage fluid in guinea pigs on the allergic rhinitis experimental model after oral administration (M±m, n=10)
# Compound I was administered to animals intragastrically 48, and 1 hour before intranasal administration of ovalbumin. Clinical manifestations of rhinitis were assessed within 2 hours after the last administration of ovalbumin: the numbers of sneezes and nose scratchings were counted. In addition, eosinophils were counted in the nasal lavage fluid.
# [5] = tested on: ovalbumin-induced allergic rhinitis model; experiment: Ovalbumin-induced allergic rhinitis model in guinea pigs, nasal administration of 1% solution; assay type: in vivo, guinea pig; conditions: for Number of eosinophils per 1 μL of lavage fluid / Number of nose scratchings / Number of sneezes: 1% solution once intranasally
# Method: Int Immunopharmacol. 2013. V.17(1). P.18-25]. Guinea pigs (250-300 g) were immunized with 4× (on days 0, 7, 14 and 21) intraperitoneal administration of a mixture of ovalbumin (100 μg/pig) and aluminum hydroxide (5 mg/pig), diluted and suspended in saline. On day 28 of the study, an ovalbumin solution (60 mg/ml) was injected intranasally to the animals, 20 μl into each nostril. On day 35, after shaving the skin on the back, the animals were injected intradermally with an ovalbumin solution (200 μg/ml, 25 μl). […] On day 42 of the study, an ovalbumin solution (60 mg/ml, 20 μl/nostril) was administered intranasally. A group of sham-immunized animals was formed in order to control the formation of allergic inflammation: the pigs received an aluminum hydroxide solution (5 mg/pig) on days 0, 7, 14 and 21, a saline solution on days 28 and 35, and an ovalbumin solution (60 mg/ml, 20 μl/nostril) on day 42.
# A 1% solution of Compound I was administered to the animals intranasally once 1 hour or 3 hours before intranasal administration of ovalbumin in a volume of 10 μl/nostril. Clinical manifestations of rhinitis were assessed within 2 hours after the last administration of ovalbumin: the numbers of sneezes and nose scratchings were counted. In addition, eosinophils were counted in the nasal lavage fluid.
# [6] = tested on: histamine-induced nasal congestion model; experiment: Histamine-induced nasal congestion model in guinea pigs, nasal administration of 1% solution; assay type: in vivo, guinea pig; conditions: for Resistance in nasal passages, AUC: 1% solution once intranasally, AUC 0-15 minutes
# Method: A histamine-induced nasal congestion model in guinea pigs was performed according to the standard procedure [Slack R J1, Russell L J, Hall D A, Luttmann M A, Ford A J, Saunders K A, Hodgson S T, Connor H E, Browning C, Clark K L. Pharmacological characterization of GSK1004723, a novel, long-acting antagonist at histamine H(1) and H(3) receptors//Br J Pharmacol. 2011. V.164(6). P.1627-1641]. Guinea pigs were anesthetized, the trachea was isolated, and a cannula was inserted through it into the nasopharynx. The cannula was connected to a blood pressure sensor and artificial respirator (Ugo Basile). A 0.2% solution of histamine was inhaled for 3 minutes. The resistance to air flow in the nasal passages was assessed within 15 minutes after the end of inhalation of the histamine solution. Compound I was administered to guinea pigs once intranasally in the form of a 1% solution (10 μl/nostril) 1 hour and 4 hours before the inhalation of histamine.
# [7] = tested on: histamine-induced nasal congestion model; experiment: Histamine-induced nasal congestion model in dogs, nasal administration of 1% solution; assay type: in vivo, Beagle dogs; conditions: 1% solution intranasally
# Method: A histamine-induced nasal congestion model in dogs was performed according to the standard procedure [Tiniakov R. L., Tiniakova O. P., McLeod R. L., Hey J. A., Yeates D. B. Canine model of nasal congestion and allergic rhinitis//J Appl Physiol. 2003. V.94(5). P.1821-1828]. Beagle dogs were injected to the nasal cavity with a 5% histamine solution in a volume of 250 μl/nostril. The volume of the nasal cavity of the right and left nostrils was measured using a rhinometer before and 5, 10, 15, 20, 30, 40, 50 and 60 minutes after administration of histamine. Five experiments were carried out in which Compound I was administered intranasally once in the form of a 1% solution in a volume of 50 μl at different time periods: 1) 5 minutes after the administration of histamine; 2) right before administration of histamine; 3) 3 hours before administration of histamine; 4) […] administration of histamine; and 5) 8 hours before administration of histamine.
# [8] = 1 hour before the last administration of ovalbumin
# [9] = 3 hours before the last administration of ovalbumin
# T1 sequence (Q9Y5N1 whole entry): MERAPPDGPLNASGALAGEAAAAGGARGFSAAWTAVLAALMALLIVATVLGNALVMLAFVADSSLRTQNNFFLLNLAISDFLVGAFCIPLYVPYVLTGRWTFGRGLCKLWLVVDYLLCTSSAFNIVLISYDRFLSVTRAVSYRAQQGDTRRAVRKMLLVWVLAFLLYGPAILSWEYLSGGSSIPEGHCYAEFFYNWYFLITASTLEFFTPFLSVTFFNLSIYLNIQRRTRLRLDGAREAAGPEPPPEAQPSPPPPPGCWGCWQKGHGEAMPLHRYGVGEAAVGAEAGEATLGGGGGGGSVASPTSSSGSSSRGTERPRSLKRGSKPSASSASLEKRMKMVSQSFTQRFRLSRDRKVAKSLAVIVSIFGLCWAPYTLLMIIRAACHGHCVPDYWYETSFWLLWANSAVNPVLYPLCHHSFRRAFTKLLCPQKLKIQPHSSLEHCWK
# T2 sequence (Q9H3N8 whole entry): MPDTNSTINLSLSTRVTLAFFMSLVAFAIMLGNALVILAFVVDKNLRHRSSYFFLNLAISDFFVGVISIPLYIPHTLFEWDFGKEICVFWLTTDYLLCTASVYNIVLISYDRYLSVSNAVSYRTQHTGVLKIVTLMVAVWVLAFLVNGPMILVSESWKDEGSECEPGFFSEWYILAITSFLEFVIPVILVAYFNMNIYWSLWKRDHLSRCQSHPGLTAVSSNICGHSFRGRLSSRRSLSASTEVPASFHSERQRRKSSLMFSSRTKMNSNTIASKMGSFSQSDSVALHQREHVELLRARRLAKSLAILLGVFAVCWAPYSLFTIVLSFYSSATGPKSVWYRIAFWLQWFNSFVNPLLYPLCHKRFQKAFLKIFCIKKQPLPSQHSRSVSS
structure (smiles),measurement,setting,value
"O=C(CC(=O)NCCc1cnc[nH]1)NCCc1cnc[nH]1 [Compound I, N,N′-bis(2-(1H-imidazol-5-yl)ethyl)malonamide]",IC50,[1],20 µM
same,Ki,[2],2.7 µM
same,Ki,[3],16 µM
same,Number of eosinophils per 1 μL of lavage fluid,[4]; 0.014 mg/kg,1300.5 ± 93.8*#& per 1 μL
same,Number of nose scratchings,[4]; 0.014 mg/kg,16.1 ± 2*#&
same,Number of sneezes,[4]; 0.014 mg/kg,11.6 ± 1.4*#&
same,Number of eosinophils per 1 μL of lavage fluid,[4]; 0.042 mg/kg,1219.6 ± 159.4*#& per 1 μL
same,Number of nose scratchings,[4]; 0.042 mg/kg,16.2 ± 2.7*&
same,Number of sneezes,[4]; 0.042 mg/kg,10.5 ± 1.2*#&
same,Number of eosinophils per 1 μL of lavage fluid,[4]; 0.14 mg/kg,1141.5 ± 128.5*#& per 1 μL
same,Number of nose scratchings,[4]; 0.14 mg/kg,13.3 ± 1.3*&
same,Number of sneezes,[4]; 0.14 mg/kg,8.3 ± 0.9*#&
same,Number of eosinophils per 1 μL of lavage fluid,[4]; 0.42 mg/kg,1069.0 ± 139.4*#& per 1 μL
same,Number of nose scratchings,[4]; 0.42 mg/kg,16.2 ± 2.0*#&
same,Number of sneezes,[4]; 0.42 mg/kg,5.2 ± 0.6*&
same,Number of eosinophils per 1 μL of lavage fluid,[4]; 1.4 mg/kg,984.1 ± 111.0*#& per 1 μL
same,Number of nose scratchings,[4]; 1.4 mg/kg,14.4 ± 3.3*&
same,Number of sneezes,[4]; 1.4 mg/kg,6.9 ± 0.8*#&
same,duration of the therapeutic effect,"[5]; 1% solution intranasally, guinea pigs, allergic rhinitis",at least 3 hours
same,Number of eosinophils per 1 μL of lavage fluid,[5]; [8],1416.9 ± 126.8*#& per 1 μL
same,Number of nose scratchings,[5]; [8],14.5 ± 4.4&
same,Number of sneezes,[5]; [8],3.1 ± 1.2#&
same,Number of eosinophils per 1 μL of lavage fluid,[5]; [9],1490.1 ± 241.0*#& per 1 μL
same,Number of nose scratchings,[5]; [9],10.7 ± 2.1#&
same,Number of sneezes,[5]; [9],3.9 ± 1.5&
same,duration of the therapeutic effect,"[6]; 1% solution intranasally, guinea pigs, histamine-induced nasal congestion",at least 4 hours
same,"Resistance in nasal passages, AUC",[6]; 1 hour before histamine inhalation,317.95 ± 24.49*& see H2O×c
same,"Resistance in nasal passages, AUC",[6]; 3 hours before histamine inhalation,281.75 ± 52.44*& see H2O×c
same,duration of the therapeutic effect,[7],at least 8 hours
same,onset time of the therapeutic effect,[7],no more than 5 minutes
